Here are results for one compound from patent publication US20040044060A1, “Fungicidal mixture” (priority 2001, published 2004).

This assay deals with Plasmopara viticola. The assay is described as follows: Protective activity against peronospora of vines caused by Plasmopara viticola (potted vines, spray treatment). It counts as in vivo. The following applies: individual active compound, vine leaves cv. Müller-Thurgau, untreated 75% infection. How it is done: The active compounds, separately or jointly, were formulated as a 10% emulsion in a mixture of 63% by weight of cyclohexanone and 27% by weight of emulsifier, and diluted with water to the desired concentration.
Evaluation was carried out by determining the infected leaf areas in percent. These percentages were converted into efficacies. The efficacy (W) was calculated as follows using Abbot's formula: […]
α corresponds to the fungal infection of the treated plants in % and β corresponds to the fungal infection of the untreated (control) plants in % An efficacy of 0 means that the infection level of the treated plants corresponds to that of the untreated control plants; an efficacy of 100 means that the treated plants were not infected.
The expected efficacies of the mixtures of the active compounds were determined using Colby's formula [R. S. Colby, Weeds 15, 20-22 (1967)] and compared with the observed efficacies.
E=x+y−x·y/100 Colby's formula: […]
E expected efficacy, expressed in % of the untreated control, when using the mixture of the active compounds A and B at the concentrations a and b x efficacy, expressed in % of the untreated control, when using active compound A at a concentration of a y efficacy, expressed in % of the untreated control, when using active compound B at a concentration of b.
Protective Activity Against peronospora vines Caused by Plasmopara viticola Leaves of potted vines of the cultivar “Müller-Thurgau” were sprayed to runoff point with an aqueous preparation of active compound which had been prepared from a stock solution comprising 10% of active compound, 85% of cyclohexanone and 5% of emulsifier. The next day, the undersides of the leaves were inoculated with an aqueous zoospore suspension of Plasmopara viticola. The vines were then initially placed in a water-vapor-saturated chamber at 24° C. for 48 hours and then in a greenhouse at 20-30° C. for 5 days. […] The extent to which the infection had developed on the undersides of the leaves was then determined visually.

On to `Cc1ccc(-c2c(Cl)nc(C#N)n2S(=O)(=O)N(C)C)cc1` [Ia, cyazofamid], for which the “Efficacy in % of the untreated control” value is 47% (0.05 ppm in the spray liquor), 73% (0.1 ppm in the spray liquor) and 87% (0.2 ppm in the spray liquor).
